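Grown in 96-well plates, cells were treated for 48 hours with each compound at five concentrations. Insufficient inhibition: endpoint recorded as highest concentration tested. TGI marks complete inhibition of growth.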
Columns and labels:
Assay in all cases: DTP human tumour cell line panel, 48 h
786-0 renal = tested on: 786-0 renal
A498 renal = tested on: A498 renal
A549 NSCLC = tested on: A549 NSCLC
ACHN renal = tested on: ACHN renal
CAKI-1 renal = tested on: CAKI-1 renal
CCRF-CEM leukemia = tested on: CCRF-CEM leukemia
COLO 205 colon = tested on: COLO 205 colon
DLD-1 colon = tested on: DLD-1 colon
DMS 114 small cell lung = tested on: DMS 114 small cell lung
DMS 273 small cell lung = tested on: DMS 273 small cell lung
EKVX NSCLC = tested on: EKVX NSCLC
HCC-2998 colon = tested on: HCC-2998 colon
HCT-116 colon = tested on: HCT-116 colon
HOP-18 NSCLC = tested on: HOP-18 NSCLC
HOP-62 NSCLC = tested on: HOP-62 NSCLC
HOP-92 NSCLC = tested on: HOP-92 NSCLC
HT29 colon = tested on: HT29 colon
IGROV1 ovarian = tested on: IGROV1 ovarian
K-562 leukemia = tested on: K-562 leukemia
KM12 colon = tested on: KM12 colon
LOX IMVI melanoma = tested on: LOX IMVI melanoma
LXFL 529 NSCLC = tested on: LXFL 529 NSCLC
M14 melanoma = tested on: M14 melanoma
M19-MEL melanoma = tested on: M19-MEL melanoma
MALME-3M melanoma = tested on: MALME-3M melanoma
MOLT-4 leukemia = tested on: MOLT-4 leukemia
NCI-H226 lung = tested on: NCI-H226 lung
NCI-H23 lung = tested on: NCI-H23 lung
NCI-H460 lung = tested on: NCI-H460 lung
NCI-H522 lung = tested on: NCI-H522 lung
OVCAR-3 ovarian = tested on: OVCAR-3 ovarian
OVCAR-4 ovarian = tested on: OVCAR-4 ovarian
OVCAR-5 ovarian = tested on: OVCAR-5 ovarian
OVCAR-8 ovarian = tested on: OVCAR-8 ovarian
RPMI-8226 leukemia = tested on: RPMI-8226 leukemia
RXF 393 renal = tested on: RXF 393 renal
SF-268 CNS = tested on: SF-268 CNS
SF-295 CNS = tested on: SF-295 CNS
SF-539 CNS = tested on: SF-539 CNS
SK-MEL-2 melanoma = tested on: SK-MEL-2 melanoma
SK-MEL-28 melanoma = tested on: SK-MEL-28 melanoma
SK-MEL-5 melanoma = tested on: SK-MEL-5 melanoma
SK-OV-3 ovarian = tested on: SK-OV-3 ovarian
SN12C renal = tested on: SN12C renal
SNB-19 CNS = tested on: SNB-19 CNS
SNB-75 CNS = tested on: SNB-75 CNS
SR leukemia = tested on: SR leukemia
SW-620 colon = tested on: SW-620 colon
TK-10 renal = tested on: TK-10 renal
U251 CNS = tested on: U251 CNS
UACC-257 melanoma = tested on: UACC-257 melanoma
UACC-62 melanoma = tested on: UACC-62 melanoma
UO-31 renal = tested on: UO-31 renal
XF 498 CNS = tested on: XF 498 CNS
HCT-15 colon = tested on: HCT-15 colon
HL-60(TB) leukemia = tested on: HL-60(TB) leukemia
KM20L2 colon = tested on: KM20L2 colon

Measured: TGI

[N-]=[N+]=NC1C2CC3C4CC5CC3[C@H](C2)C(C5)C41 (some centres not stated)
not listed: HCT-15 colon | HL-60(TB) leukemia | KM20L2 colon
> 100 µM: all other assays above

O=C(O)CCCNS(=O)(=O)c1ccccc1
not listed: DMS 114 small cell lung | HCT-116 colon | HOP-62 NSCLC | SR leukemia
> 100 µM: all other assays above

From PubChem BioAssay (NCI)
